Assay [1] deals with T1, TG2 (Homo sapiens, UniProt P21980).
T1 sequence (P21980 1-687): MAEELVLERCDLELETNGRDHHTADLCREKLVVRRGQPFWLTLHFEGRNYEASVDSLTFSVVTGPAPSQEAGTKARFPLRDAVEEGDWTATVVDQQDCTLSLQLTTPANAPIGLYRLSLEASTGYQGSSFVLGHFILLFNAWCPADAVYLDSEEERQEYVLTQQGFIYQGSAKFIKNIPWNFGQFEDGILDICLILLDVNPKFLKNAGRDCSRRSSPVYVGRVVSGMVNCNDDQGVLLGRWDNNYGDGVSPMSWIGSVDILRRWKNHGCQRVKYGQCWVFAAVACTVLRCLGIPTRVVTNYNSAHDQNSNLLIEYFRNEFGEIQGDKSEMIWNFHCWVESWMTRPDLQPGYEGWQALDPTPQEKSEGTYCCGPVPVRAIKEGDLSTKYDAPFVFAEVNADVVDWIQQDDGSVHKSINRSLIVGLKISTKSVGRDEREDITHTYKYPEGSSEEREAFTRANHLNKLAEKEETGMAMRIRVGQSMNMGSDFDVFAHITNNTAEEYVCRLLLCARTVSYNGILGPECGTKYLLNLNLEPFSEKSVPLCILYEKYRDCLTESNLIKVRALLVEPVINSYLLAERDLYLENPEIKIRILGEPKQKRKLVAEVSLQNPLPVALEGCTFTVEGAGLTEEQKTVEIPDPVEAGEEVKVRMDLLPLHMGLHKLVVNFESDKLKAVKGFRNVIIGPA
Kind of assay: In situ TG2 transamidase activity (FC incorporation), HaCaT cells. Also noted: endogenous in cells. In kind it is cell-based. How it is done:
HaCaT cells were electroporated with mCer-TG2 or mCer-TG2-YAP and then treated with 0 or 5 μM of the indicated inhibitor and fluorescent lifetime was monitored. […] HaCaT cells were preloaded with fluorescein cadaverine, treated with the indicated inhibitor and then challenged with calcium ionophore, washed and assayed for FC incorporation. […] HaCaT were incubated for 48 h with the indicated inhibitor and extracts were prepared and incubated with GTP-agarose beads to measure TG2 binding to GTP agarose. The beads were then washed, boiled in Laemmli buffer and electrophoresed for immunoblot detection of TG2. Cell equivalent quantities of total and bound samples were electrophoresed to facilitate comparison of GTP bound versus total. […] Experiments were performed as described in FIGS. 31 (F) and (G).
In situ TG2 transamidase activity assay. Cells (40,000) were plated in 24-well attachment dishes in spheroid media and grown until 50% confluent. FC was added in 2 ml of serum-free medium at a final concentration of 20 μM and incubated for 4 h. […] After 30 min, the wells were supplemented with 10 NM A23187, a calcium ionophore.

The test system of assay [2] is TS565 neurospheres. Kind of assay: Neurosphere growth, TS565 (proneural). In kind it is cell-based, human. To be noted: 25 μM, 2 weeks. The source says:
Neurosphere cultures. TS543, TS565 and TS676, which represent the mesenchymal, proneural and classical glioblastoma subtypes respectively, based on transcriptomic and genomic analysis, were obtained from C. Brennan through the Monoclonal Antibody Core Facility at Memorial Sloan Kettering Cancer Center (Brennan, C. et al., PLoS One 4(11):e7752, 2009; Pyonteck, S. M. et al., Nature Med. 19(10):1264-72, 2013; Rohle, D. et al., Science 340(6132):626-30, 2013) and maintained in NeuroCult™ NS-A Proliferation Kit (Human) (Stem Cell Technologies) according to manufacturer's instructions. (NeuroCult Medium was supplemented with 20 ng/mL FGF, 50 ng/mL EGF and 0.0002% Heparin). To prevent neurosphere attachment to the bottom of the cell culture plates, Poly 2-hydroxyethyl methacrylate (PHM) was used. 6-well plates were coated with 1 mL/well of 1% PHM in ethanol (w/v). The plates were air dried in a sterile environment overnight and washed once with PBS and they were kept in the fridge in a sterile environment until use. For passaging, neurospheres were triturated according to instructions and 5,000 cells were seeded in each well in 2 mL medium. For treatments with TG2 inhibitors, cells were inoculated in medium containing 25 μM TG2 inhibitor or DMSO control. 200 μL of medium containing the 25 μM TG2 inhibitor or DMSO was added every other day. At the end of 2 weeks, 20-50 random microscopic images were captured for each group. The average volume of each sphere image was determined using Image J by a person blinded for neurosphere lines and treatments and volumes were calculated from the area data and used for comparison.

Assay [3] has as its system HaCaT cells. The experiment in a line: Matrigel invasion assay, HaCaT cells. In kind it is cell-based, human. The conditions noted are these: 20 μM, 24 h.
Assay [4] deals with SCC-13 cells. Kind of assay: Matrigel invasion assay, SCC-13 cells. In kind it is cell-based, human. As to the method: Invasion assay. Matrigel was diluted in 0.01 M Tris-HCl/0.7% NaCl, filter sterilized and 0.1 ml was used to coat individual BD BioCoat inserts (Millicell-PCF, 0.4 μm, 12 mm, PIHP01250). Cells (25,000) were plated in 100 μl in growth medium, supplemented with 1% FCS, in the upper chamber. The lower chamber contained growth medium supplemented with 10% FCS. After migration, the membranes were harvested and excess cells were removed from the upper membrane surface. The membrane was fixed in 4% paraformaldehyde, stained with 1 μg/m DAPI, and the underside of the membrane was photographed with an inverted fluorescent microscope and the number of cells counted.
Invasion assay. Matrigel (BD Biolabs) was diluted into 2 mL of 0.01 M Tris-HC/0.7% NaCl to a final concentration of 300 μg/mL, filter sterilized and 0.1 mL was added per BD BioCoat cell insert. After 2 hours, near-confluent SCC13-TG2-shRNA2 and SCC13-Control-shRNA cells were harvested and 25,000 cells were plated in 100 μL of growth media containing 1% FCS atop the Matrigel layer. Growth medium containing 10% FCS was added to the bottom chamber followed by an overnight incubation at 37° C. The following day a cotton swab was used to remove cells from the upper side of the membrane, the membrane was rinsed with phosphate-buffered saline, fixed with 4% paraformaldehyde for 10 min, washed again, and stained with 1 μg/mL DAPI for 10 min. The underside of the membrane was viewed with an inverted fluorescent microscope and nuclei were counted.
Invasion assay. Matrigel (BD Biolabs) was diluted into 2 ml of 0.01 M Tris-HC/0.7% NaCl to a final concentration of 300 μg/ml, filter sterilized, and 0.1 ml was added per BD BioCoat cell insert (8 microns pore size, surface area 0.3 cm2). After 2 h, near-confluent SCC-13 cells were harvested and 25,000 cells were plated in 100 μl of growth media containing 1% FCS atop the Matrigel layer. Growth medium containing 10% FCS was added to the bottom chamber followed by an overnight incubation at 37° C. The following day a cotton swab was used to remove cells from the upper side of the membrane, the membrane was rinsed with PBS, fixed with 4% paraformaldehyde, washed again, and stained with 1 μg/ml DAPI for 10 min. The underside of the membrane was viewed with an inverted fluorescent microscope, and nuclei were counted (Adhikary, G. et al., PLoS One 8:e84324, 2013).

For `C=CC(=O)NCCCC[C@H](NC(=O)OCc1ccccc1)C(=O)NCCOCCOCCNS(=O)(=O)c1cccc2c(N(C)C)cccc12` [NC9], the “TG2 transamidase activity (FC incorporation)” value (“TG2 transamidase activity” for short) in assay [1] was “suppressed TG2 transamidase activity”. For the same compound, the “sphere growth, TS565” value in assay [2] is given as “suppressed sphere growth”. Besides, in assay [3], the invasion through matrigel result is “suppressed”. The matrigel invasion entry is recorded as “reduced matrigel invasion” in assay [4] (20 μM pretreatment 1 hour, 24 hours) and “inhibited” in assay [4] (20 μM, 24 h). The invasion entry in assay [4] (20 μM pretreatment 2 h, 30 h) was “reduced”.
For the compound `C=CC(=O)NCCCC[C@H](NC(=O)OCc1ccccc1)C(=O)N1CCN(S(=O)(=O)c2cccc3c(N(C)C)cccc23)CC1` [VA4, (S)-benzyl(6-acrylamido-1-(4-((5-(dimethylamino)naphthalen-1-yl)sulfonyl)piperazin-1-yl)-1-oxohexan-2-yl)carbamate], the “TG2 transamidase activity” value in assay [1] is “suppressed TG2 transamidase activity”. In addition, in assay [2], the “sphere growth, TS565” value is reported as “suppressed sphere growth”. Also, the invasion through matrigel result in assay [3] is reported as “suppressed”. Further, the matrigel invasion entry in assay [4] (20 μM, 24 h) is reported as “inhibited”.
On to `C=CC(=O)NCCCC[C@H](NC(=O)OCc1ccccc1)C(=O)N1CCN(C(=O)c2cc3ccc(O)cc3oc2=O)CC1` [VA5, (S)-Benzyl(6-acrylamido-1-(4-(7-hydroxy-2-oxo-2H-chromene-3-carbonyl)piperazin-1-yl)-1-oxohexan-2-yl)carbamate], for which the “TG2 transamidase activity” value in assay [1] was “suppressed TG2 transamidase activity”. For the same compound, the “sphere growth, TS565” value in assay [2] was “only mildly suppressive”. The invasion through matrigel result in assay [3] is recorded as “suppressed”. The matrigel invasion result in assay [4] (20 μM, 24 h) is given as “inhibited”.
